pIC50, pKi: −log10 of the molar value. One block for each molecule: values may come before it. Calls of active or inactive are those of the source. The rule behind the calls is not given here.
What was measured:
[1] = molecular target: T1, D(4) dopamine receptor (Homo sapiens) (UniProt P21917); assay: Inhibition of human dopamine D4 receptor at 10 uM
T1 sequence (whole entry): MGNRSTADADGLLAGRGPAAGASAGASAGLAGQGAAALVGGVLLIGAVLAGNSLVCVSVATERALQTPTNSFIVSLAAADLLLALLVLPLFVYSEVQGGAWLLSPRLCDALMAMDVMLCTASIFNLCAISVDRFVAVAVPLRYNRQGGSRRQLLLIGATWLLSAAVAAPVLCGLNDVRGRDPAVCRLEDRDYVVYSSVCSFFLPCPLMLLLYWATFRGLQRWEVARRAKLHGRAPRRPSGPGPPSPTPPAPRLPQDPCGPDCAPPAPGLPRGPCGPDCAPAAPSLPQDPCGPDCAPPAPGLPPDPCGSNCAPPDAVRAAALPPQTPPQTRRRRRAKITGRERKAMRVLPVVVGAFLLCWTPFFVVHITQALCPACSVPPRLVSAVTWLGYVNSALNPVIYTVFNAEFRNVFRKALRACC

D(4) dopamine receptor = molecular target: T2, D(4) dopamine receptor (Homo sapiens, UniProt P21917); assay: Inhibition of human dopamine D4 receptor
T2 sequence (P21917 whole entry): T1 sequence (whole entry)

D(1A) dopamine receptor = D(1A) dopamine receptor (Homo sapiens, UniProt P21728); assay: Inhibition of human dopamine D1 receptor
D(3) dopamine receptor = D(3) dopamine receptor (Homo sapiens, UniProt P35462); assay: Inhibition of human dopamine D3 receptor
[2] = molecular target: D(1B) dopamine receptor (Homo sapiens) (UniProt P21918); assay: Inhibition of human dopamine D5 receptor
D(2) dopamine receptor [3] = molecular target: T3, D(2) dopamine receptor (Homo sapiens, UniProt P14416); assay: Inhibition of human dopamine D2S receptor
D(2) dopamine receptor [4] = molecular target: T3, D(2) dopamine receptor; assay: Inhibition of human dopamine D2L receptor
[5] = molecular target: T4, Alpha-1A adrenergic receptor (Homo sapiens) (UniProt P35348); assay: Binding affinity to adrenergic alpha1A receptor (unknown origin) at 10 uM by radioligand binding assay
T4 sequence (whole entry): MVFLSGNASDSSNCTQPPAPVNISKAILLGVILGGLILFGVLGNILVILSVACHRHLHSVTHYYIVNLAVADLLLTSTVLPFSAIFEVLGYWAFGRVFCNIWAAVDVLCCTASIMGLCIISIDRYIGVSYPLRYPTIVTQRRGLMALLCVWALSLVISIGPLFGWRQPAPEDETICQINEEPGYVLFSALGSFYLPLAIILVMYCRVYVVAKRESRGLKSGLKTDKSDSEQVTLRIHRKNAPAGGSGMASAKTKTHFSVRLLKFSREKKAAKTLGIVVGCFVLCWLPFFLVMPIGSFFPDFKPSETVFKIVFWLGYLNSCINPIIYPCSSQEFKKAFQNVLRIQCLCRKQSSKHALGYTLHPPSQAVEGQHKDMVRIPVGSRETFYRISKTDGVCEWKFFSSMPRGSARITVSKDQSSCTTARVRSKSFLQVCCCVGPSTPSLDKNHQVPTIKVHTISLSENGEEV

[6] = molecular target: Histamine H1 receptor (Homo sapiens) (UniProt P35367); assay: Binding affinity to histamine H1 receptor (unknown origin) at 10 uM by radioligand binding assay
[7] = molecular target: Sigma non-opioid intracellular receptor 1 (Homo sapiens) (UniProt Q99720); assay: Binding affinity to sigma 1 receptor (unknown origin) at 10 uM by radioligand binding assay
[8] = molecular target: Sodium-dependent dopamine transporter (Homo sapiens) (UniProt Q01959); assay: Binding affinity to dopamine transporter (unknown origin) at 10 uM by radioligand binding assay
[9] = molecular target: Sodium-dependent noradrenaline transporter (Homo sapiens) (UniProt P23975); assay: Binding affinity to norepinephrine transporter (unknown origin) at 10 uM by radioligand binding assay
[10] = Fraction unbound in human plasma; format: ADME, cell-free
[11] = Fraction unbound in rat plasma; format: ADME, cell-free
Cytochrome P450 1A2 = molecular target: T5, Cytochrome P450 1A2 (Homo sapiens, UniProt P05177); assay: Inhibition of human CYP1A2 by electrospray ionization; format: ADME
T5 sequence (P05177 whole entry): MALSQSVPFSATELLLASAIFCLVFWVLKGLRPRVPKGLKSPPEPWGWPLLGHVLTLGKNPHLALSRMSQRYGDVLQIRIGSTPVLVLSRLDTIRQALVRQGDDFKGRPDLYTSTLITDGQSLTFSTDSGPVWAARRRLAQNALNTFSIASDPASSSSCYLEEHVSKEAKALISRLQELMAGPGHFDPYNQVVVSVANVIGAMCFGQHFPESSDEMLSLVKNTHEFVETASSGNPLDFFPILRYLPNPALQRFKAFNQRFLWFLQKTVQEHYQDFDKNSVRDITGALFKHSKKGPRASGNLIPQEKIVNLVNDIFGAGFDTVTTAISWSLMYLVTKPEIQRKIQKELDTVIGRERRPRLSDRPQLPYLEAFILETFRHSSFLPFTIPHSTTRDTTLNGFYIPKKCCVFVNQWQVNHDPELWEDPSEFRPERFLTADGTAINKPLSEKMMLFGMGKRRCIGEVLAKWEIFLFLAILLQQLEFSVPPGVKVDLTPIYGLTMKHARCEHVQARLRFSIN

Cytochrome P450 2C9 = Cytochrome P450 2C9 (Homo sapiens, UniProt P11712); assay: Inhibition of human CYP2C9 by electrospray ionization; format: ADME
Cytochrome P450 2D6 = Cytochrome P450 2D6 (Homo sapiens, UniProt P10635); assay: Inhibition of human CYP2D6 by electrospray ionization; format: ADME
Cytochrome P450 3A4 = Cytochrome P450 3A4 (Homo sapiens, UniProt P08684); assay: Inhibition of human CYP3A4 by electrospray ionization; format: ADME
[12] = Drug uptake in Sprague-Dawley rat plasma at 10 mg/kg, ip after 0.25 hrs; format: ADME, organism-based; design: dose 10 mg/kg, route intraperitoneal
[13] = Drug uptake in Sprague-Dawley rat brain at 10 mg/kg, ip after 0.25 hrs; format: ADME, organism-based; design: dose 10 mg/kg, route intraperitoneal
[14] = Ratio of drug level in Sprague-Dawley rat brain to plasma at 10 mg/kg, ip after 0.25 hrs; format: ADME, organism-based; design: dose 10 mg/kg, route intraperitoneal
Rattus norvegicus [15] = assay: Reversal of cocaine-induced hyperlocomotion in Sprague-Dawley rat at 10 mg/kg, ip; format: functional, organism-based; design: dose 10 mg/kg
D(2) dopamine receptor [16] = molecular target: T3, D(2) dopamine receptor; assay: Inhibition of human dopamine D2 receptor
Rattus norvegicus [17] = assay: Reversal of cocaine-induced hyperlocomotion in Sprague-Dawley rat at 3 mg/kg, ip; format: functional, organism-based; design: dose 3 mg/kg

Chain of D(1A) dopamine receptor (P21728 whole entry): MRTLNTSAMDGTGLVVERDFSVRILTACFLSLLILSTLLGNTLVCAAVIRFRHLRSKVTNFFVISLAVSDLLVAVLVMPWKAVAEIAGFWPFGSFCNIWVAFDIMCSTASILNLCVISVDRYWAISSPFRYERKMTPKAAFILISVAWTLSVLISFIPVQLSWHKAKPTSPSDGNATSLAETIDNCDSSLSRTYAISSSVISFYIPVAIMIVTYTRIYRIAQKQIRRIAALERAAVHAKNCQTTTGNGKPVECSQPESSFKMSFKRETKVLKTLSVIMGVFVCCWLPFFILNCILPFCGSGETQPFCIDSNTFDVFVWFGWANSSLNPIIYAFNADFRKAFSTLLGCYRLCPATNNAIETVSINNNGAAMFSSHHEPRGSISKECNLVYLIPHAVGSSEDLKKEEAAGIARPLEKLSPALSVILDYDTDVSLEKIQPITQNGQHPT
Chain of D(3) dopamine receptor (P35462 whole entry): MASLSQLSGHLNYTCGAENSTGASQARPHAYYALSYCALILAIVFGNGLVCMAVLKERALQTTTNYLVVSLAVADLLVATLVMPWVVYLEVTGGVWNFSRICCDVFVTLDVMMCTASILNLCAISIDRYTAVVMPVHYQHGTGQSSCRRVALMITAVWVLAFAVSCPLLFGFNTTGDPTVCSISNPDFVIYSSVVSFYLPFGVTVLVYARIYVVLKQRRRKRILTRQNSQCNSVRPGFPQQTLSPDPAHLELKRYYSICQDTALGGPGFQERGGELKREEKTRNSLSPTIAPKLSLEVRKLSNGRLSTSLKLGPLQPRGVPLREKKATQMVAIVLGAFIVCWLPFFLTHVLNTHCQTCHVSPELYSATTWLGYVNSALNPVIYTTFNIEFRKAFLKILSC
T3 sequence (P14416 whole entry): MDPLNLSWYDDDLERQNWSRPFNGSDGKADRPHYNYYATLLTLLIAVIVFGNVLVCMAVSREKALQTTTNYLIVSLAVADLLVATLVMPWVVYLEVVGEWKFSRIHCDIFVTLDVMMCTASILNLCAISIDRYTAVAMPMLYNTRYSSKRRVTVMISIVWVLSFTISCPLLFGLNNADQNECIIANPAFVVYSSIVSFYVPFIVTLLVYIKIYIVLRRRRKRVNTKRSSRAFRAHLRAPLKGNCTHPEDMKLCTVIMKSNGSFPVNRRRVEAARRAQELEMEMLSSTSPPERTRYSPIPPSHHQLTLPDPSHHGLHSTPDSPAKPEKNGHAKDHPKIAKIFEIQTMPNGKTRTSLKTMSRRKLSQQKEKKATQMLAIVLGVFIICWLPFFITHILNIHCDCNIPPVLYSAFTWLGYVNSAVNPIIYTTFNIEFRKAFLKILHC
Chain of D(1B) dopamine receptor (Homo sapiens) (P21918 whole entry): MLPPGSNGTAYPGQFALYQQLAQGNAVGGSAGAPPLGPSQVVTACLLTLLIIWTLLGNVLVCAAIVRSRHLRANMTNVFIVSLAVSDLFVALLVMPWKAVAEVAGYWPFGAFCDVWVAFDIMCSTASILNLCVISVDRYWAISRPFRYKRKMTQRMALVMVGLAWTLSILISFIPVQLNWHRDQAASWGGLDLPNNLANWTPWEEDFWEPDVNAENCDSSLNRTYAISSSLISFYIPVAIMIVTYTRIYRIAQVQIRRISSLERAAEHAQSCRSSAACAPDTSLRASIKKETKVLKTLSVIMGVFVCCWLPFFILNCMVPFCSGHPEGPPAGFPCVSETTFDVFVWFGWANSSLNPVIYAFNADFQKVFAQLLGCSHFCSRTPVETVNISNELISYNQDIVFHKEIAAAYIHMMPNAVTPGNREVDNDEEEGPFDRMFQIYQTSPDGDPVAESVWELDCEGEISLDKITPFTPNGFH
Chain of Cytochrome P450 2C9 (P11712 whole entry): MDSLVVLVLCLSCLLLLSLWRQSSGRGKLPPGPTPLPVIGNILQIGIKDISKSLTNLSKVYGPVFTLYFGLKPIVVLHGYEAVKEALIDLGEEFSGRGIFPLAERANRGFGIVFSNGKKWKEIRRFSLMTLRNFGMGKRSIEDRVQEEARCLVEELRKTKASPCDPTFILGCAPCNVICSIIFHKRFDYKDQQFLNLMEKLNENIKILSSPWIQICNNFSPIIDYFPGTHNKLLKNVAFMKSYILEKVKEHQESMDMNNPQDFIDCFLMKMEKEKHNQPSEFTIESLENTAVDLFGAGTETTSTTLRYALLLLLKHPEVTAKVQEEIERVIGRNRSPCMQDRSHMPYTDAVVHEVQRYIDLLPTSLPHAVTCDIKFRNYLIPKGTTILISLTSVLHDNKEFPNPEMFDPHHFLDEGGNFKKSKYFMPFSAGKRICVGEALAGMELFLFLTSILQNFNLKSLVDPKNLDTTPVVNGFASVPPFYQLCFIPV
Chain of Cytochrome P450 3A4 (P08684 whole entry): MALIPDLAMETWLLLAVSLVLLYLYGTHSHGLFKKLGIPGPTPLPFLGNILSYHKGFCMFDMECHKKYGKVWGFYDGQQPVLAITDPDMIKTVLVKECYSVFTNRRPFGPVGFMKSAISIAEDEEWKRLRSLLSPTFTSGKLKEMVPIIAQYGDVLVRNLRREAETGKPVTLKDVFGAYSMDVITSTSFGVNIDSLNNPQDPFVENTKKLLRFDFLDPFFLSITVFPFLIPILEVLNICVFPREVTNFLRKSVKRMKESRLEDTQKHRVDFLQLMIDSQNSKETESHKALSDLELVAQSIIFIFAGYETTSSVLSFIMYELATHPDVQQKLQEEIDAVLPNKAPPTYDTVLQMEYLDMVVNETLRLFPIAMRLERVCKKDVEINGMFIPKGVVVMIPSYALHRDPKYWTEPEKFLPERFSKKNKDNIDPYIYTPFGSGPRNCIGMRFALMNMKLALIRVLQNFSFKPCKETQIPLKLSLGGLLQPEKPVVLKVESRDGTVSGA
Chain of Cytochrome P450 2D6 (P10635 whole entry): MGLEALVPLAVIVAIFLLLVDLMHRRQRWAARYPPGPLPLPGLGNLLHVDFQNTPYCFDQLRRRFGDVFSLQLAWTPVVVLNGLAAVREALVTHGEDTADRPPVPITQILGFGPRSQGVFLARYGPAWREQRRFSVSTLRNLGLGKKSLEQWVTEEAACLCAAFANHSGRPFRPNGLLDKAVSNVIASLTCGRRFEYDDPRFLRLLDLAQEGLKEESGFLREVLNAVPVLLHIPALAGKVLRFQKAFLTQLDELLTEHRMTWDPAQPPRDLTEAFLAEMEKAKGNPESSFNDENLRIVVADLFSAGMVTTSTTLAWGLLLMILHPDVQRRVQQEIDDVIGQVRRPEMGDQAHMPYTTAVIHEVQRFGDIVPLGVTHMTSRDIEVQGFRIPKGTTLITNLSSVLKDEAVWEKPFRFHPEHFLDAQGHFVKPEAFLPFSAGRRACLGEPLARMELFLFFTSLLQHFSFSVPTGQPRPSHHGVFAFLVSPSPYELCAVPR
Chain of Sodium-dependent noradrenaline transporter (Homo sapiens) (P23975 whole entry): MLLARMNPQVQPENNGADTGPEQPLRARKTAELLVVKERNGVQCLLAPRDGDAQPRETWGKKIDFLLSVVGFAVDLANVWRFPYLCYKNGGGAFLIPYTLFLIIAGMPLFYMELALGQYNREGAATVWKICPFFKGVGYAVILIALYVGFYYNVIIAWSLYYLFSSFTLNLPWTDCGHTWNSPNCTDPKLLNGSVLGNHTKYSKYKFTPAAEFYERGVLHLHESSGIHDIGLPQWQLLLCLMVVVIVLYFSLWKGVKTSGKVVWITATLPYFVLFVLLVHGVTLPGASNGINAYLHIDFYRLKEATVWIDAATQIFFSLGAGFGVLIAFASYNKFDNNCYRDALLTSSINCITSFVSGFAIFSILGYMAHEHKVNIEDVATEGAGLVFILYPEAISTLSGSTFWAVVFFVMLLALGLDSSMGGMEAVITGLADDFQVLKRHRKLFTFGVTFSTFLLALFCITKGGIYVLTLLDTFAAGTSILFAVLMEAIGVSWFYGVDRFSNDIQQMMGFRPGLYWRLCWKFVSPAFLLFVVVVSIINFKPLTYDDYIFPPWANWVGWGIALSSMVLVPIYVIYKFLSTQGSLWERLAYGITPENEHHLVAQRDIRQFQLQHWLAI
Chain of Histamine H1 receptor (Homo sapiens) (P35367 whole entry): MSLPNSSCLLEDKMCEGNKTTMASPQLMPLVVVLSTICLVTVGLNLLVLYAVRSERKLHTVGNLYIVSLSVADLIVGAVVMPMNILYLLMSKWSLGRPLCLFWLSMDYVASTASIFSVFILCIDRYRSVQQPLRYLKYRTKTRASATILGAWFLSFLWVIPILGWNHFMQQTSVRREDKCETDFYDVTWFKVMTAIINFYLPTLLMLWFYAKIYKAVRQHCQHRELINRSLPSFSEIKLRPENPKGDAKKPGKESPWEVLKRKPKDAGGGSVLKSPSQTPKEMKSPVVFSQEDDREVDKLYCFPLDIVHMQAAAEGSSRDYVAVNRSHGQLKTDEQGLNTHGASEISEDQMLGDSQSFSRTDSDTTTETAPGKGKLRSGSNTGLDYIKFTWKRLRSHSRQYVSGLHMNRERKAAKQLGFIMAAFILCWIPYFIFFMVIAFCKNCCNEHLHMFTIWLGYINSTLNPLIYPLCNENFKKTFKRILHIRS
Chain of Sodium-dependent dopamine transporter (Homo sapiens) (Q01959 whole entry): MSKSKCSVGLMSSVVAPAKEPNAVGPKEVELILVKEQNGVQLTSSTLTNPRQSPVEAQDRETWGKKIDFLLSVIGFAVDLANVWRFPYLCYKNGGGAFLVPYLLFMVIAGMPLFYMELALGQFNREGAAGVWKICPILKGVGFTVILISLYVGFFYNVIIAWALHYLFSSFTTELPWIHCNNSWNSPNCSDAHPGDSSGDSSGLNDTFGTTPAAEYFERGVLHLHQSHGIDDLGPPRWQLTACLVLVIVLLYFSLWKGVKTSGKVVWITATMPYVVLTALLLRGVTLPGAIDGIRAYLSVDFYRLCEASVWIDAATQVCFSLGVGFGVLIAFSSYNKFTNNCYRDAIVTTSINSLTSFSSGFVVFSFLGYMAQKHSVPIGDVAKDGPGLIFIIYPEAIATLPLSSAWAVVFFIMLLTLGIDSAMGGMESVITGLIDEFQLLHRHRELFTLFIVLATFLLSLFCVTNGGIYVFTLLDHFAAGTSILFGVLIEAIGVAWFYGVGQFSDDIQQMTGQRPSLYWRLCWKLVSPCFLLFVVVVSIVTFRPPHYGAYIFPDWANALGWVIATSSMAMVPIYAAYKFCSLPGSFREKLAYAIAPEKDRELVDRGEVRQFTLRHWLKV

pIC50 (D(4) dopamine receptor): 5.83
pKi (D(4) dopamine receptor): 6.39
inhibition [1]: 74%
SMILES: c1ccc(CCC2CN(Cc3ccccc3)CCO2)cc1 (racemic)

pIC50 (D(4) dopamine receptor): 5.43
pKi (D(4) dopamine receptor): 5.99
inhibition [1]: 54%
SMILES: Cc1ccccc1CN1CCOC(CCc2ccccc2)C1 (racemic)

inhibition [1]: 35%
SMILES: c1ccc(CCC2CN(Cc3cccnc3)CCO2)cc1 (racemic)

pIC50 (D(1A) dopamine receptor): < 4.00
pKi (D(1A) dopamine receptor): < 4.00
pIC50 (D(2) dopamine receptor [16]): < 4.00
pKi (D(2) dopamine receptor [16]): < 4.00
pIC50 (D(3) dopamine receptor): 4.34
pKi (D(3) dopamine receptor): 4.80
pIC50 (D(4) dopamine receptor): 6.74
pKi (D(4) dopamine receptor): 7.15
fraction unbound [10]: 0.012
fraction unbound [11]: 0.133
pIC50 (Cytochrome P450 1A2): 4.88
pIC50 (Cytochrome P450 2C9): 5.32
pIC50 (Cytochrome P450 2D6): 4.92
pIC50 (Cytochrome P450 3A4): 4.81
concentration at 0.25 h [12]: 1940 nM
concentration at 0.25 h [13]: 3560 nM
Kp at 0.25 h [14]: 1.8
SMILES: c1ccc(CC[C@@H]2CN(Cc3nc4ccccc4[nH]3)CCO2)cc1
Activity (Rattus norvegicus [17]): inactive
Activity (Rattus norvegicus [15]): inactive

inhibition [1]: 23%
SMILES: c1ccc(CCC2CN(Cc3ccccn3)CCO2)cc1 (racemic)

pIC50 (D(1A) dopamine receptor): < 4.00
pKi (D(1A) dopamine receptor): < 4.00
pIC50 (D(2) dopamine receptor [16]): < 4.00
pKi (D(2) dopamine receptor [16]): < 4.00
pIC50 (D(3) dopamine receptor): 4.50
pKi (D(3) dopamine receptor): 4.97
pIC50 (D(4) dopamine receptor): 6.44
pKi (D(4) dopamine receptor): 6.85
SMILES: c1ccc(CCC2CN(Cc3nc4ccccc4[nH]3)CCO2)cc1 (racemic)

inhibition [1]: 13%
SMILES: c1ccc(CCC2CN(Cc3ccncc3)CCO2)cc1 (racemic)

Second part, the molecule before the results:

SMILES: O=S(=O)(c1ccccc1)N1CCOC(CCc2ccccc2)C1 (racemic)
inhibition [1]: 2%

SMILES: COc1ccc(CN2CCOC(CCc3ccccc3)C2)cc1 (racemic)
INH (D(1A) dopamine receptor): > 20 µM
pIC50 (D(3) dopamine receptor): 5.09
pKi (D(3) dopamine receptor): 5.56
pIC50 (D(4) dopamine receptor): 6.77
pKi (D(4) dopamine receptor): 7.34
inhibition [1]: 98%
INH [2]: > 20 µM
INH (D(2) dopamine receptor [3]): > 20 µM
pIC50 (D(2) dopamine receptor [4]): 4.78

SMILES: FC(F)(F)Oc1cccc(CN2CCOC(CCc3ccccc3)C2)c1 (racemic)
pIC50 (D(4) dopamine receptor): 6.41
pKi (D(4) dopamine receptor): 6.96
inhibition [1]: 88%

SMILES: Fc1cccc(F)c1CN1CCOC(CCc2ccccc2)C1 (racemic)
pIC50 (D(4) dopamine receptor): 5.41
pKi (D(4) dopamine receptor): 5.97
inhibition [1]: 51%

SMILES: O=C(Nc1ccc(F)cc1)N1CCOC(CCc2ccccc2)C1 (racemic)
inhibition [1]: 5%

SMILES: Fc1ccc(CN2CCOC(CCc3ccccc3)C2)cc1 (racemic)
pIC50 (D(4) dopamine receptor): 5.94
pKi (D(4) dopamine receptor): 6.49
inhibition [1]: 88%

SMILES: Clc1ccc(CN2CCO[C@H](CCc3ccccc3)C2)cc1
INH (D(1A) dopamine receptor): > 20 µM
INH (D(3) dopamine receptor): > 20 µM
pIC50 (D(4) dopamine receptor): 6.89
pKi (D(4) dopamine receptor): 7.44
inhibition [1]: 96%
INH [2]: > 20 µM
INH (D(2) dopamine receptor [3]): > 20 µM
INH (D(2) dopamine receptor [4]): > 20 µM
Activity [5]: 77%
Activity [6]: 93%
Activity [7]: 99%
Activity [8]: 72%
Activity [9]: 68%
fraction unbound [10]: 0.061
fraction unbound [11]: 0.039
pIC50 (Cytochrome P450 1A2): < 4.52
pIC50 (Cytochrome P450 2C9): < 4.52
pIC50 (Cytochrome P450 2D6): 4.74
pIC50 (Cytochrome P450 3A4): < 4.52
concentration at 0.25 h [12]: 482 nM
concentration at 0.25 h [13]: 987 nM
Kp at 0.25 h [14]: 2
Activity (Rattus norvegicus [15]): Active

SMILES: c1ccc(CC[C@H]2CN(Cc3nc4ccccc4[nH]3)CCO2)cc1
pIC50 (D(1A) dopamine receptor): < 4.00
pKi (D(1A) dopamine receptor): < 4.00
pIC50 (D(2) dopamine receptor [16]): < 4.00
pKi (D(2) dopamine receptor [16]): < 4.00
pIC50 (D(3) dopamine receptor): 4.12
pKi (D(3) dopamine receptor): 4.59
pIC50 (D(4) dopamine receptor): < 4.00
pKi (D(4) dopamine receptor): < 4.00

SMILES: Cn1c(N2CCOC(CCc3ccccc3)C2)nc2ccccc21 (racemic)
inhibition [1]: 17%

SMILES: Cc1ccc(C(=O)N2CCOC(CCc3ccccc3)C2)cc1 (racemic)
inhibition [1]: 17%

SMILES: FC(F)(F)Oc1ccc(CN2CCOC(CCc3ccccc3)C2)cc1 (racemic)
INH (D(1A) dopamine receptor): > 20 µM
pIC50 (D(3) dopamine receptor): 5.09
pKi (D(3) dopamine receptor): 5.56
pIC50 (D(4) dopamine receptor): 6.80
pKi (D(4) dopamine receptor): 7.37
inhibition [1]: 94%
INH [2]: > 20 µM
INH (D(2) dopamine receptor [3]): > 20 µM
pKi (D(2) dopamine receptor [4]): 5.26

SMILES: c1ccc(CCC2CN(c3ccccc3)CCO2)cc1 (racemic)
inhibition [1]: 5%

SMILES: Clc1ccc(CN2CCOC(CCc3ccccc3)C2)cc1 (racemic)
INH (D(1A) dopamine receptor): > 20 µM
INH (D(3) dopamine receptor): > 20 µM
pIC50 (D(4) dopamine receptor): 6.54
pKi (D(4) dopamine receptor): 7.09
inhibition [1]: 97%
INH [2]: > 20 µM
INH (D(2) dopamine receptor [3]): > 20 µM
INH (D(2) dopamine receptor [4]): > 20 µM

SMILES: FC(F)(F)Oc1ccc(CN2CCO[C@H](CCc3ccccc3)C2)cc1
INH (D(1A) dopamine receptor): > 20 µM
pIC50 (D(3) dopamine receptor): 5.09
pKi (D(3) dopamine receptor): 5.56
pIC50 (D(4) dopamine receptor): 6.64
pKi (D(4) dopamine receptor): 7.19
inhibition [1]: 96%
INH [2]: > 20 µM
INH (D(2) dopamine receptor [3]): > 20 µM
pKi (D(2) dopamine receptor [4]): 5.26
